Paper PMC9592910, “Tissue distribution and integrated pharmacokinetic properties of major effective constituents of oral Gegen-Qinlian decoction in mice” (Frontiers in Pharmacology, 2022)
Marks after values point to notes of the source that are not given here.

How the values were obtained:
[1] = design: method as in Zhai et al., 2020; settings: at 10 μM; ref Zhai et al., 2020; cited from earlier work
[2] = Pharmacokinetics/tissue distribution of GQD constituents in the colons of mice after oral GQD; format: in vivo, Kunming mice; settings: colon, mice; for half-life: po, read-out: T1/2 (converted)
Procedure: (§1) The liver and the colon homogenates were prepared with 10 times (V: W) the volume of ascorbic acid solution (200 μg/ml). Then the homogenates were pretreated as plasma to obtain the tissue samples for LC-MS/MS analysis. Fifty-four Kunming mice were randomly divided into nine groups according to body weight and gender (3 male and three female in each group). […] Then the C-T curves of the constituents in the plasma and the tissue homogenates were respectively drawn and their pharmacokinetic parameters were respectively calculated. […] It should be noted that the pharmacokinetic parameters of a GQD constituent was calculated based on its average concentration in six mice at each time point. The results were expressed as mean ± SD.

[3] = system: dextran sodium sulfate-induced ulcerative colitis model mice; design: method as in Dong et al., 2022; settings: oral 40 mg/kg for 7 days, DSS-induced ulcerative colitis model mice; ref Dong et al., 2022; cited from earlier work
[4] = Pharmacokinetics of GQD constituents in the portal vein of mice after oral GQD; format: in vivo, Kunming mice; settings: portal vein plasma, portal vein plasma, mice; for Cmax / MRT / AUC(0-t) / half-life: oral GQD extract 6.1 g/kg; for AUC(0-t): read-out: AUC0–24 h; for half-life: read-out: T1/2 (converted)
Procedure: (§2) Fifty-four Kunming mice were randomly divided into nine groups according to body weight and gender (3 male and three female in each group). Each group was orally administered with water solution (0.2 ml/10 g body weight) of the GQD extract powder at the dosage of 6.1 g/kg body weight. The dosage of GQD extract powder equals to 18 g/kg herbal pieces of GQD, which is equivalent to its clinical dosage. At each designed time point (0.08, 0.25, 0.5, 1, 2, 4, 8, 12, and 24 h) after oral administration, six mice were anesthetized with ether, and blood was collected from the portal vein (about 0.2 ml, aspirated in a 1 ml heparinized syringe) and then the systemic circulation (about 0.2 ml, collected in heparinized tubes after removal of the eyeball) of the mice to prepare plasma samples, and the livers and the colons were removed to prepare respective homogenate. After pretreatment, the concentrations of 19 major constituents of GQD in each sample were measured by the validated LC-MS/MS method (see “2.3”). Then the C-T curves of the constituents in the plasma and the tissue homogenates were respectively drawn and their pharmacokinetic parameters were respectively calculated.
(§3) It should be noted that the pharmacokinetic parameters of a GQD constituent was calculated based on its average concentration in six mice at each time point. The results were expressed as mean ± SD.

[5] = Pharmacokinetics of GQD constituents in the systemic circulation of mice after oral GQD; format: in vivo, Kunming mice; settings: systemic circulation plasma, systemic circulation plasma, mice; for half-life / Tmax / T1/2: oral GQD […]; for half-life: read-out: T1/2 (converted); for Cmax / MRT / AUC(0-t): oral GQD 6.1 g/kg; for AUC(0-t): read-out: AUC0–24 h
Procedure: as §2, §3

[6] = Pharmacokinetics/tissue distribution of GQD constituents in the livers of mice after oral GQD; format: in vivo, Kunming mice; settings: liver, mice; for half-life: po, read-out: T1/2 (converted)
Procedure: as §1

[7] = system: dextran sodium sulfate-induced colitis; design: method as in Jeon et al., 2020; settings: oral 10 or 50 mg/kg; ref Jeon et al., 2020; cited from earlier work
[8] = system: rats with irritable bowel syndrome; design: method as in Wang et al., 2021; settings: oral 6–24 mg/kg, ref Wang et al., 2021; cited from earlier work
[9] = both, Kunming, mouse, colon (homogenate), oral GQD extract […]
[10] = both, Kunming, mouse, colon (homogenate), oral GQD extract 6.1 g/kg
[11] = both, Kunming, mouse, colon (homogenate), oral GQD extract 6.1 g/kg, read-out: Tmax
[12] = both, Kunming, mouse, po, […], oral GQD extract […], read-out: Tmax
[13] = both, Kunming, mouse, po, […], read-out: Tmax
[14] = both, Kunming, mouse, liver (homogenate), oral GQD extract […]
[15] = both, Kunming, mouse, liver (homogenate), oral GQD extract 6.1 g/kg
[16] = both, Kunming, mouse, liver (homogenate), oral GQD extract 6.1 g/kg, read-out: Tmax

SMILES	half-life [2, 9] [h]	Cmax [2, 10] [ng/g]	MRT [2, 10] [h]	Tmax [2, 11] [h]	Tmax [4, 12] [h]	Cmax ([4]; both, Kunming, mouse) [ng/mL]	MRT ([4]; both, Kunming, mouse) [h]	AUC(0-t) ([4]; both, Kunming, mouse) [ng·h/mL]	half-life ([4]; both, Kunming, mouse) [h]	half-life ([5]; both, Kunming, mouse, po, […]) [h]	Tmax [5, 13] [h]	Cmax ([5]; both, Kunming, mouse) [ng/mL]	MRT ([5]; both, Kunming, mouse) [h]	AUC(0-t) ([5]; both, Kunming, mouse) [ng·h/mL]	half-life [6, 14] [h]	Cmax [6, 15] [ng/g]	MRT [6, 15] [h]	Tmax [6, 16] [h]	T1/2 ([6]; oral GQD extract […])	T1/2 ([2]; oral GQD extract […]) [h]	also measured
COc1cc2c(cc1OC)-c1cc3ccc(OC)c(OC)c3c[n+]1CC2 [Palmatine, palmatine]																			4.6 h	3.8	Tmax ([2]; oral GQD extract […]): 4.0 h; T1/2 ([4]; oral GQD extract […]): 3.0 h; Tmax ([4]; oral GQD extract […]): 4.0 h; T1/2 [5]: 7.2 h; Tmax [5]: 1.0 h; Tmax ([6]; oral GQD extract […]): 2.0 h
O=c1c(-c2ccc(O)cc2)coc2c([C@@H]3O[C@H](CO)[C@@H](O)[C@H](O)[C@H]3O)c(O)ccc12 [Puerarin, puerarin]	1 to 4	61600	5.9	4	0.25 to 0.5	1990	3.2	6710	2.9	3.4	0.25 to 0.5	1580	3.3	5230	3 to 4	2870	3.8	0.5	4.0 h	1.3	effect on dextran sodium sulfate-induced colitis [7]: alleviated dextran sodium sulfate-induced colitis; effect on irritable bowel syndrome symptoms [8]: improved symptoms of rats with irritable bowel syndrome

Continued, in another order:

half-life [2, 9] [h]	Cmax [2, 10] [ng/g]	MRT [2, 10] [h]	Tmax [2, 11] [h]	Tmax [4, 12] [h]	Cmax ([4]; both, Kunming, mouse) [ng/mL]	MRT ([4]; both, Kunming, mouse) [h]	AUC(0-t) ([4]; both, Kunming, mouse) [ng·h/mL]	half-life ([4]; both, Kunming, mouse) [h]	half-life ([5]; both, Kunming, mouse, po, […]) [h]	Tmax [5, 13] [h]	Cmax ([5]; both, Kunming, mouse) [ng/mL]	MRT ([5]; both, Kunming, mouse) [h]	AUC(0-t) ([5]; both, Kunming, mouse) [ng·h/mL]	half-life [6, 14] [h]	Cmax [6, 15] [ng/g]	MRT [6, 15] [h]	Tmax [6, 16] [h]	SMILES	T1/2 ([6]; oral GQD extract […])	T1/2 ([2]; oral GQD extract […]) [h]	also measured
3.5	6230	6	4	4	191	5.5	1420	8	~6	1	85.4	5.4	419	~10	427	8.3	4	COc1ccc2cc3[n+](cc2c1OC)CCc1cc2c(cc1-3)OCO2 [Berberine, berberine]	10.1# h		anti-inflammatory effect [1]: significant anti-inflammatory effect; effect on intestinal mucosal barrier function and inflammatory reaction [3]: significantly improved intestinal mucosal barrier function; T1/2 [5]: 5.3 h
2.1	2150	5	4	0.25	38.3	2.6	161	1.2	1.9	0.5	22.4	2.6	94.9	5.3	53.4	5.3	0.25	COc1ccc2c(c1O)-c1c(O)c(OC)cc3c1[C@H](C2)[N+](C)(C)CC3 [Magnoflorine, magnoflorine]			
2 to 3	535	6.1	4	2	1220	3.3	4510	1	1.5	2	64.7	3.6	300	2 to 3	839	5	4	COc1c(O)cc(O)c2c(=O)cc(-c3ccccc3)oc12 [Wogonin, wogonin]	2.6 h	3.2	
